Data from patent publication US20170190671A1, “BIS(ARYL)CATECHOL DERIVATIVES AS HERBICIDES” (E I DU PONT DE NEMOURS AND COMPANY, priority 2014, published 2017).

Tests used:
Assay type in all cases: in vivo
[1] = system: ducksalad (Heteranthera limosa); test: Test C flooded paddy; settings: Flood, scale 0 to 100
From the text: (§1) At time of treatment, test pots were flooded to 3 cm above the soil surface, treated by application of test compounds directly to the paddy water, and then maintained at that water depth for the duration of the test. Treated plants and controls were maintained in a greenhouse for 13 to 15 days, after which time all species were compared to controls and visually evaluated. […] A dash (-) response means no test result.

[2] = system: rice (Oryza sativa); test: Test C flooded paddy; settings: Flood, scale 0 to 100
From the text: as §1

[3] = system: barnyardgrass (Echinochloa crus-galli); test: Test C flooded paddy; settings: Flood, scale 0 to 100
From the text: as §1

[4] = system: sedge, umbrella (small-flower umbrella sedge, Cyperus difformis); test: Test C flooded paddy; settings: Flood, scale 0 to 100
From the text: as §1

[5] = system: ducksalad (Heteranthera limosa); test: Test B flooded paddy; settings: Heteranthera limosa, 336 h; 250 g ai/ha, Flood, 13 to 15 days, scale 0 (no effect) to 100 (complete control); read-out: Plant response rating, Ducksalad
Outline: (§2)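 Visual injury ratings against untreated controls, taken 13 to 15 days after compound was added to paddy water standing 3 cm above the soil.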

[6] = system: rice (Oryza sativa); test: Test B flooded paddy; settings: Oryza sativa, 336 h; 250 g ai/ha, Flood, 13 to 15 days, scale 0 (no effect) to 100 (complete control); read-out: Plant response rating, Rice
Outline: as §2

[7] = system: barnyardgrass (Echinochloa crus-galli); test: Test B flooded paddy; settings: Echinochloa crus-galli, 336 h; 250 g ai/ha, Flood, 13 to 15 days, scale 0 (no effect) to 100 (complete control); read-out: Plant response rating, Barnyardgrass
Outline: as §2

[8] = system: sedge, umbrella (small-flower umbrella sedge, Cyperus difformis); test: Test B flooded paddy; settings: Cyperus difformis, 336 h; 250 g ai/ha, Flood, 13 to 15 days, scale 0 (no effect) to 100 (complete control); read-out: Plant response rating, Sedge, Umbrella
Outline: as §2

[9] = system: velvetleaf (Abutilon theophrasti); test: Test A preemergence; settings: 0 to 100 scale
Outline: (§3)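 Scoring: eye-based comparison with untreated controls, 0 for no effect through 100 for complete control, at about day 10. Treatments: directed soil spray preemergence; foliar spray postemergence on 2–10 cm plants at the one- to two-leaf stage. Medium: loam soil with sand.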

[10] = system: giant foxtail (Setaria faberii); test: Test A preemergence; settings: Setaria faberi, pre-emergence, 240 h, 0 to 100 scale, read-out: Plant response rating, Foxtail, Giant
Outline: as §3

[11] = system: wheat (Triticum aestivum); test: Test A preemergence; settings: 0 to 100 scale
Outline: as §3

[12] = system: barnyardgrass (Echinochloa crus-galli); test: Test A preemergence; settings: Echinochloa crus-galli, pre-emergence, 240 h, 0 to 100 scale, read-out: Plant response rating, Barnyardgrass
Outline: as §3

[13] = system: morningglory (Ipomoea spp.); test: Test A preemergence; settings: 0 to 100 scale
Outline: as §3

[14] = system: large (Lg) crabgrass (Digitaria sanguinalis); test: Test A preemergence; settings: 0 to 100 scale
Outline: as §3

[15] = system: pigweed (Amaranthus retroflexus); test: Test A preemergence; settings: Amaranthus retroflexus, pre-emergence, 240 h, 0 to 100 scale, read-out: Plant response rating, Pigweed
Outline: as §3

[16] = system: corn (Zea mays); test: Test A preemergence; settings: 0 to 100 scale
Outline: as §3

[17] = system: velvetleaf (Abutilon theophrasti); test: Test A postemergence; settings: 0 to 100 scale
Outline: as §3

[18] = system: giant foxtail (Setaria faberii); test: Test A postemergence; settings: Setaria faberi, post-emergence, 240 h, 0 to 100 scale, read-out: Plant response rating, Foxtail, Giant
Outline: as §3

[19] = system: wheat (Triticum aestivum); test: Test A postemergence; settings: Triticum aestivum, post-emergence, 240 h, 0 to 100 scale, read-out: Plant response rating, Wheat
Outline: as §3

[20] = system: barnyardgrass (Echinochloa crus-galli); test: Test A postemergence; settings: Echinochloa crus-galli, post-emergence, 240 h, 0 to 100 scale, read-out: Plant response rating, Barnyardgrass
Outline: as §3

[21] = system: morningglory (Ipomoea spp.); test: Test A postemergence; settings: 0 to 100 scale
Outline: as §3

[22] = system: large (Lg) crabgrass (Digitaria sanguinalis); test: Test A postemergence; settings: 0 to 100 scale
Outline: as §3

[23] = system: pigweed (Amaranthus retroflexus); test: Test A postemergence; settings: Amaranthus retroflexus, post-emergence, 240 h, 0 to 100 scale, read-out: Plant response rating, Pigweed
Outline: as §3

[24] = system: corn (Zea mays); test: Test A postemergence; settings: Zea mays, post-emergence, 240 h, 0 to 100 scale
Outline: as §3

N#Cc1cccc(Oc2ncc(Br)cn2)c1Oc1ncc(Br)cn1 [Compound 1, 2,3-bis[(5-bromo-2-pyrimidinyl)oxy]benzonitrile]
Plant response rating, Ducksalad ([1]; 31 g ai/ha): 0
Plant response rating, Ducksalad ([1]; 62 g ai/ha): 0
Plant response rating, Ducksalad ([1]; 125 g ai/ha): 50
Plant response rating, Ducksalad ([1]; 250 g ai/ha): 80
Plant response rating, Rice ([2]; 31 g ai/ha): 0
Plant response rating, Rice ([2]; 62 g ai/ha): 0
Plant response rating, Rice ([2]; 125 g ai/ha): 0
Plant response rating, Rice ([2]; 250 g ai/ha): 0
Plant response rating, Barnyardgrass ([3]; 31 g ai/ha): 0
Plant response rating, Barnyardgrass ([3]; 62 g ai/ha): 0
Plant response rating, Barnyardgrass ([3]; 125 g ai/ha): 0
Plant response rating, Barnyardgrass ([3]; 250 g ai/ha): 0
Plant response rating, Sedge, Umbrella ([4]; 31 g ai/ha): 0
Plant response rating, Sedge, Umbrella ([4]; 62 g ai/ha): 30
Plant response rating, Sedge, Umbrella ([4]; 125 g ai/ha): 65
Plant response rating, Sedge, Umbrella ([4]; 250 g ai/ha): 80
pest or weed control at 250 g/ha [5]: 90%
plant injury at 250 g/ha [6]: 0%
pest or weed control at 250 g/ha [7]: 40%
pest or weed control at 250 g/ha [8]: 95%
Plant response rating, Velvetleaf ([9]; 125 g ai/ha): 70
Plant response rating, Velvetleaf ([9]; 500 g ai/ha): 100
pest or weed control at 125 g/ha ([10]; 125 g ai/ha): 90%
pest or weed control at 500 g/ha ([10]; 500 g ai/ha): 100%
Plant response rating, Wheat ([11]; 125 g ai/ha): 20
Plant response rating, Wheat ([11]; 500 g ai/ha): 60
pest or weed control at 125 g/ha ([12]; 125 g ai/ha): 70%
pest or weed control at 500 g/ha ([12]; 500 g ai/ha): 90%
Plant response rating, Morningglory ([13]; 125 g ai/ha): 30
Plant response rating, Morningglory ([13]; 500 g ai/ha): 100
Plant response rating, Crabgrass, Large ([14]; 125 g ai/ha): 100
Plant response rating, Crabgrass, Large ([14]; 500 g ai/ha): 100
pest or weed control at 125 g/ha ([15]; 125 g ai/ha): 100%
pest or weed control at 500 g/ha ([15]; 500 g ai/ha): 100%
Plant response rating, Corn ([16]; 125 g ai/ha): 20
Plant response rating, Corn ([16]; 500 g ai/ha): 60
Plant response rating, Velvetleaf ([17]; 125 g ai/ha): 70
Plant response rating, Velvetleaf ([17]; 500 g ai/ha): 90
pest or weed control at 125 g/ha ([18]; 125 g ai/ha): 70%
pest or weed control at 500 g/ha ([18]; 500 g ai/ha): 90%
plant injury at 125 g/ha ([19]; 125 g ai/ha): 30%
plant injury at 500 g/ha ([19]; 500 g ai/ha): 60%
pest or weed control at 125 g/ha ([20]; 125 g ai/ha): 70%
pest or weed control at 500 g/ha ([20]; 500 g ai/ha): 90%
Plant response rating, Morningglory ([21]; 125 g ai/ha): 30
Plant response rating, Morningglory ([21]; 500 g ai/ha): 30
Plant response rating, Crabgrass, Large ([22]; 125 g ai/ha): 60
Plant response rating, Crabgrass, Large ([22]; 500 g ai/ha): 100
pest or weed control at 125 g/ha ([23]; 125 g ai/ha): 100%
pest or weed control at 500 g/ha ([23]; 500 g ai/ha): 100%
Corn plant response rating (crop injury, 0 = no effect, 100 = complete kill) at 125 g/ha ([24]; 125 g ai/ha): 30%
Corn plant response rating (crop injury, 0 = no effect, 100 = complete kill) at 500 g/ha ([24]; 500 g ai/ha): 80%
